“And” between values parts separate entries of the source, which are not always exact repeats. Equal values may be shown once. Read-outs that look alike come from different tables or passages of the source.
Key:
purified PARP protein = purified PARP protein (Homo sapiens, UniProt P09874); experiment: PARP enzyme inhibition assay; assay type: biochemical
[1] = 20 nM purified PARP (5 nM for tight-binding inhibitors), 500 μM NAD+, 25° C., several values in one cell = repeat determinations, read-out: Inhibition Constant Ki

Chain of purified PARP protein (P09874 whole entry): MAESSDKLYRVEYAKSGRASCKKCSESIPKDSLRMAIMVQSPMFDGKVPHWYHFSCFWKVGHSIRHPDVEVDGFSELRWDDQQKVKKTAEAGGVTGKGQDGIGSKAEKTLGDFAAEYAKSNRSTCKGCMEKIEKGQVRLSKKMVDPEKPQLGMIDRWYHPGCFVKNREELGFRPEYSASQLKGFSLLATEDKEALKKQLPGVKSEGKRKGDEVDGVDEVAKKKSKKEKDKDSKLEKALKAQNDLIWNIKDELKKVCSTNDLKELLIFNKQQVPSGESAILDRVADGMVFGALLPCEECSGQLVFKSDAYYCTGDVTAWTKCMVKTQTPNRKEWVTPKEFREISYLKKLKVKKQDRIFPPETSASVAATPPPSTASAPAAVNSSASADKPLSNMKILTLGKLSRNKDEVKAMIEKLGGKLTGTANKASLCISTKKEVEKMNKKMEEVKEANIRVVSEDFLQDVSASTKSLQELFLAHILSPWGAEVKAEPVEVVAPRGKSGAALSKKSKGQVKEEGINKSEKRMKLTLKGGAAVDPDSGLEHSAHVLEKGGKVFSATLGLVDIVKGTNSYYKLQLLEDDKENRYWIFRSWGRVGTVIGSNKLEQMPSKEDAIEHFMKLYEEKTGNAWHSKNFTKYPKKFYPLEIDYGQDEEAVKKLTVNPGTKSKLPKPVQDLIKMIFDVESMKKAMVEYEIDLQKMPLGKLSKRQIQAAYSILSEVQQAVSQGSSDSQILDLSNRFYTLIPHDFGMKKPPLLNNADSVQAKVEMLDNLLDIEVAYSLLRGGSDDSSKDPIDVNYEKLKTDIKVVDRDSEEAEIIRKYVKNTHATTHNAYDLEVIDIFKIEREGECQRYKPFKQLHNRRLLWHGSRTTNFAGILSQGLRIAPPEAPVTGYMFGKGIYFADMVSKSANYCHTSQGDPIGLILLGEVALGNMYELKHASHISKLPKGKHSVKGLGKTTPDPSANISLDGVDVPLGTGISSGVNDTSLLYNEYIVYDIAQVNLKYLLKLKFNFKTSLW

Compound | melting point | Ki (purified PARP protein; [1]) | Ki (purified PARP protein; Inhibition Constant Ki (nM))
O=C1NCCn2c(-c3ccc(Cl)nc3)nc3cccc1c32 [Example 118, 1-(6-Chloro-pyridin-3-yl)-8,9-dihydro-7H-2,7,9a-triaza-benzo[cd]azulen-6-one] | > 280 °C (dec.) | 4.4 nM | 
O=C1NCCn2c(-c3ccc(OCCO)cc3)nc3cccc1c32 [Example 120, 1-[4-(2-Hydroxy-ethoxy)-phenyl]-8,9-dihydro-7H-2,7,9a-triaza-benzo[cd]azulen-6-one] | 253 to 254 °C (dec.) | 7.3 nM | 
O=C1NCCn2c(-c3ccc(CN4CC[S+]([O-])CC4)cc3)nc3cccc1c32 [Example 122, 1-[4-(Oxo-1λ^4-thiomorpholin-4-ylmethyl)-phenyl]-8,9-dihydro-7H-2,7,9a-triaza-benzo[cd]azulen-6-one] | 247 °C (dec.) | 7 nM | 
O=C1NCCn2c(-c3ccc(OCCN4CCCC4)cc3)nc3cccc1c32 [Example 123, 1-[4-(2-Pyrrolidin-1-yl-ethoxy)-phenyl]-8,9-dihydro-7H-2,7,9a-triaza-benzo[cd]azulen-6-one] | 172 to 175 °C | 9 nM | 
CN(C)CCOc1ccc(-c2nc3cccc4c3n2CCNC4=O)cc1 [Example 124, 1-[4-(2-Dimethylamino-ethoxy)-phenyl]-8,9-dihydro-7H-2,7,9a-triaza-benzo[cd]azulen-6-one] | 184 to 186 °C | 8 nM | 
O=C1NCCn2c(-c3ccc(CCOC4CCCCO4)cc3)nc3cccc1c32 (centres unmarked) [Example 125, 1-{4-[2-(Tetrahydro-pyran-2-yloxy)-ethyl]-phenyl}-8,9-dihydro-7H-2,7,9a-triaza-benzo[cd]azulen-6-one] | 189 to 190 °C | 11 nM | 
O=C1NCCn2c(-c3ccc(CCO)cc3)nc3cccc1c32 [Example 127, 1-[4-(2-Hydroxy-ethyl)-phenyl]-8,9-dihydro-7H-2,7,9a-triaza-benzo[cd]azulen-6-one] | 263 to 265 °C | 3.5 nM and 3.6 nM | 
Cn1nnc(-c2ccc(-c3nc4cccc5c4n3CCNC5=O)cc2)n1 [Example 133, 1-[4-(2-Methyl-2H-tetrazol-5-yl)-phenyl]-8,9-dihydro-7H-2,7,9a-triaza-benzo[cd]azulen-6-one] | 280 °C (dec.) | 6.9 nM | 
O=C1NCCn2c(-c3ccc(-c4ccncc4)cc3)nc3cccc1c32 [Example 135, 1-(4-Pyridin-4-yl-phenyl)-8,9-dihydro-7H-2,7,9a-triaza-benzo[cd]azulen-6-one] | 370 to 372 °C (dec.) | 3.8 nM | 
O=C1NCCn2c(-c3ccc(-c4nn[nH]n4)cc3)nc3cccc1c32 [Example 136, 1-[4-(2H-Tetrazol-5-yl)-phenyl]-8,9-dihydro-7H-2,7,9a-triaza-benzo[cd]azulen-6-one] | > 290 °C (dec.) | 96 nM | 
CSc1nc2cccc3c2n1CCNC3=O [Example 138, 1-Methylsulfanyl-8,9-dihydro-7H-2,7,9a-triaza-benzo[cd]azulen-6-one] | 223 to 225 °C | 11 nM | 
C[S+]([O-])c1nc2cccc3c2n1CCNC3=O (centres unmarked) [Example 139, 1-Methanesulfinyl-8,9-dihydro-7H-2,7,9a-triaza-benzo[cd]azulen-6-one] | 241 to 242 °C (dec.) | 12 nM | 
CS(=O)(=O)c1nc2cccc3c2n1CCNC3=O [Example 140, 1-Methanesulfonyl-8,9-dihydro-7H-2,7,9a-triaza-benzo[cd]azulen-6-one] | > 190 °C (dec.) | 6.8 nM | 
CN1CCCC(c2ccc(-c3nc4cccc5c4n3CCNC5=O)cc2)C1 (centres unmarked) [Example 144, 1-[4-(Methyl-piperidin-3-yl)-phenyl]-8,9-dihydro-7H-2,7,9a-triaza-benzo[cd]azulen-6-one] | 240 to 242 °C | 7.4 nM | 
O=C1NCCn2c(NCc3ccccc3)nc3cccc1c32 [Example 145, 1-Benzylamino-8,9-dihydro-7H-2,7,9a-triaza-benzo[cd]azulen-6-one] | 186 °C (dec.) | 20 nM | 
O=C1NCCn2c(-c3ccc(-c4c[nH]cn4)cc3)nc3cccc1c32 [Example 147, 1-[4-(1H-Imidazol-4-yl)-phenyl]-8,9-dihydro-7H-2,7,9a-triaza-benzo[cd]azulen-6-one] | > 198 °C (dec.) | 4 nM | 
CC(C)N1CCCCC1c1ccc(-c2nc3cccc4c3n2CCNC4=O)cc1 (centres unmarked) [Example 151] | > 260 °C (dec.) | 6.9 nM | 
O=C1NCCn2c(-c3ccc(-c4ncc[nH]4)cc3)nc3cccc1c32 [Example 152, 1-[4-(1H-Imidazol-2-yl)-phenyl]-8,9-dihydro-7H-2,7,9a-triaza-benzo[cd]azulen-6-one] | > 325 °C | 3.2 nM | 
NC(=S)c1c(-c2ccc(F)cc2)n2c3c(cccc13)C(=O)NCC2 [Example 153, 6-(4-Fluoro-phenyl)-1-oxo-1,2,3,4-tetrahydro-[1,4]diazepino[6,7,1-hi]indole-7-carbothioic Acid Amide] | 238 to 240 °C | 219 nM | 
N/C(=N\O)c1c(-c2ccc(F)cc2)n2c3c(cccc13)C(=O)NCC2 [Example 155, 6-(4-Fluoro-phenyl)-N-hydroxy-1-oxo-1,2,3,4-tetrahydro-[1,4]diazepino[6,7,1-hi]indole-7-carboxmidine] | 257 to 259 °C | 87 nM | 
CC(O)c1c(-c2ccc(F)cc2)n2c3c(cccc13)C(=O)NCC2 (centres unmarked) [Example 157, 6-(4-Fluoro-phenyl)-7-(1-hydroxy-ethyl)-3,4-dihydro-2H-[1,4]diazepino[6,7,1-hi]indol-1-one] | 220 to 222 °C | 540 nM | 
O=C1NCCn2c(-c3ccc(F)cc3)c(-c3ccn[nH]3)c3cccc1c32 [Example 160, 6-(4-Fluoro-phenyl)-7-(2H-pyrazol-3-yl)-3,4-dihydro-2H-[1,4]diazepino[6,7,1-hi]indol-1-one] | 173 to 175 °C |  | 249 nM
COC(=O)CCCc1cc2cccc3c2n1CCNC3=O [Example 161] | 175 to 176 °C | 116 nM | 
CC(O)c1cn2c3c(cccc13)C(=O)NCC2 (centres unmarked) [Example 163, 7-(1-Hydroxy-ethyl)-3,4-dihydro-2H-[1,4]diazepino[6,7,1-hi]indol-1-one] | 295 to 297 °C | 692 nM | 
CC(=O)c1cn2c3c(cccc13)C(=O)NCC2 [Example 164, 7-Acetyl-3,4-dihydro-2H-[1,4]diazepino[6,7,1-hi]indol-1-one] | 285 to 287 °C | 606 nM | 
O=C1NCCn2cc(C(O)c3ccccc3)c3cccc1c32 (centres unmarked) [Example 166, 7-(1-Hydroxy-1-phenyl-methyl)-3,4-dihydro-2H-[1,4]diazepino[6,7,1-hi]indol-1-one] | 178 to 180 °C |  | 380 nM
O=C(c1ccccc1)c1cn2c3c(cccc13)C(=O)NCC2 [Example 167, 7-(1-Benzoyl)-3,4-dihydro-2H-[1,4]diazepino[6,7,1-hi]indol-1-one] | 229 to 230 °C | 337 nM | 
O=C1NCCn2cc(/C(=N/O)c3ccccc3)c3cccc1c32 [Example 168, 7-(1-Hydroxyimino-1-phenyl-methyl)-3,4-dihydro-2H-[1,4]diazepino[6,7,1-hi]indol-1-one] | 263 to 265 °C |  | 38 nM

From patent US6548494B1, “Tricyclic inhibitors of poly(ADP-ribose) polymerases” (Agouron Pharmaceuticals, Inc., priority 1999, dated 2003)
